{"source": "patent US9739734B2", "about": "“Methods and systems of detecting exocytosis of a target molecule from a population of cells” (THE MARINE […], priority 2013, dated 2017)", "test_system": "pancreatic islet", "experiment": "Impedance analysis of a pancreatic islet for insulin exocytosis (single frequency, real-time)", "type": "cell-based", "from_the_text": "In one embodiment, the method can be used to measure exocytosis of a molecule from an islet of cells. […] In one embodiment, islets can be modeled by 4 passive elements as in the equivalent electric circuit, where RMEM and CMEM represent the sum of the plasma membrane (MEM) resistances (R) and capacitances (C), and RCYT and RINT represent the sum of cytosolic (CYT) and intercellular space (INT) resistances, for all cells in the islet, respectively (FIG. 1B). AC currents applied across a whole islet result in voltage drops across these 4 elements, which are dependent, in part, on the AC frequency and the impedance (Z) of these elements (V=I(ZR(MEM+CYT+INT)+ZC(MEM)). ZC(MEM) and ZR(MEM) are generally sensitive to the level of an applied secretagogue (e.g., glucose), which at stimulatory levels decrease the RMEM, via opening of ion channels, and increase CMEM, via surface area increase reflective of exocytosis. Separation of the measured AC voltage into real (in phase with current) and imaginary (out of phase with current) components for 2 different frequencies can provide direct determination of RMEM, CMEM, RCYT and RINT through generation of 4 separate equations.\nIn order to optimize the resolution for monitoring changes in CMEM, an appropriate AC current can be applied at selected frequencies where the measured voltage drop across CMEM is readily detectable (e.g., where the measured voltage drop cross CMEM changes the most) during exocytosis. […] CIP can provide visualization of the changes in plasma membrane capacitance (PMc) over the range of applied frequencies, and thus the frequencies (e.g., 2 frequencies) at which the largest changes (e.g., the two largest changes) in plasma membrane capacitance can be determined as optimal AC frequencies.\nThe two optimal AC frequencies are then applied simultaneously to islets, e.g., according to the block diagram in FIG. 2. […] The computer can be used to compute, track and store the values of the passive elements of the equivalent circuit corresponding to the islet being measured. […]", "data": [{"smiles": "[Cl-].[K+]", "note": "[KCl, potassium chloride]", "values": [{"measurement": "exocytosis of insulin from cells in the islet (shift in complex impedance plot)", "setting": "25 mM KCl, before vs after addition, one frequency, FIG. 3", "value": "substantial exocytosis of insulin"}, {"measurement": "change in whole islet capacitance (imaginary component of impedance)", "setting": "KCl final concentration 25 mM, single frequency ~1250 Hz, time series, FIG. 4B", "value": "immediate change in whole islet capacitance"}, {"measurement": "change in whole islet resistance (real component of impedance)", "setting": "KCl final concentration 25 mM, single frequency, time series, FIG. 4A", "value": "not whole islet resistance"}]}]}
